Holding throughout (type): in vivo
In assay [1] the test system is mice. Put plainly: psychostimulant activity (pharmacological tests in animals such as mice). Particulars: similarly tested. Here is the method:
(§1) As has been indicated hereinabove the novel end products of this invention, i.e., the compounds of formula I and their pharmaceutically acceptable acid addition salts and the compounds of formula II-d and their pharmaceutically acceptable acid addition salts, are useful as psychostimulants. When administered, for example, orally, or animals such as mice they produce a direct-acting stimulant effect of long duration in single doses in amounts ranging from 0.03 mg/kg to 50 mg/kg. […] Exp. Path. and Pharm., Vol. 140, page 237). The compounds of this invention have psychostimulant effects qualitatively similar in many respect to those of imipramine and amphetamine which are wellknown for their therapeutic uses and properties.

Assay [2] concerns mice. Put plainly: writhing test in mice (analgesic). As to conditions: p.o. Here is the method:
(§2) In addition to their use as psychostimulants, the compounds of formulas I and II-d are also useful as analgesic agents. […] For example, 2-(2-benzoylphenyl)-2-imadazoline in dogs at 4 mg/kg i.v. produced an increase in blood pressure of 10 mm. Hg after 2 minutes followed by gradual increase to 25 mm. Hg.
In general terms: An intraperitoneal irritant provokes the stretching counted in writhing tests.

Assay [3] relates to ptosis induced by tetrabenzene in mice. Put plainly: prevention of ptosis induced by tetrabenzene (tetrabenazene) in mice. Particulars: Mus musculus, po, read-out: dose that prevented the ptosis induced by tetrabenzene. As to the method:
as §1

The subject of assay [4] is effects of β-(3,4-dihydroxyphenyl)-α-alanine (DOPA) in mice. Put plainly: DOPA potentiation test in mice. As to conditions: Mus musculus, ip. As to the method:
as §1

The test system of another assay is unanesthetized cat. Briefly: unanesthetized cat test for muscle relaxants. As to conditions: p.o. As to the method:
as §2

Another assay deals with dogs. Briefly: blood pressure in dogs. As to conditions: 4 mg/kg i.v. Here is the method:
as §2

In a further assay the test system is animals. Put plainly: analgesic properties (pharmacological tests in animals). Particulars: based on the pharmacological tests in animals. As to the method: as §2
The test system of assay [5] is hypothermia induced by reserpine in mice. Briefly: reversal of hypothermia induced by reserpine in mice. As to conditions: Mus musculus, po, reserpine 10 mg/kg s.c., read-out: dose that reversed the hypothermia and hypometabolic effects induced by reserpine. Here is the method:
as §1

Where [6] appears, read: mice, i.p., read-out: dose that potentiated the effects of DOPA.
Setting [7] is: comparison drugs, read-out: dose showing psychostimulant activity in the DOPA potentiation test.

Consider 7 compounds from US4018765A, “Process for the preparation of certain hydroperoxy derivatives” (Hoffmann-La Roche Inc., priority 1975, dated 1977).

Where two headings read alike, the source gives them in different places.

As for `COc1ccc(C2(O)c3ccccc3C3=NCCN32)cc1` (centres unmarked) [2,3-dihydro-5-hydroxy-5-(4-methoxyphenyl)-5H-imidazo[2,1-a]-isoindole], the “psychostimulant test result relative to 2-(2-benzoylphenyl)-2-imidazoline” value with mice [1] is “qualitatively similar to 2-(2-benzoylphenyl)-2-imidazoline”.
On the same count and under the same terms, with `OC1(c2ccc(Cl)cc2)c2ccccc2C2=NCCN21` (centres unmarked) [5-(4-chlorophenyl)-2,3-dihydro-5-hydroxy-5H-imidazo[2,1-a]-isoindole] the entry was “qualitatively similar to 2-(2-benzoylphenyl)-2-imidazoline”.
Consider `O=C(c1ccccc1)c1ccccc1C1=NCCN1` [Example 10, 2-(2-benzoylphenyl)-2-imidazoline], for which the “dose with marked activity in the writhing test” value in the assay with mice [2] worked out at 30.8 mg/kg. Moreover, the minimal effective dose in assay [3] stood at 0.06 mg/kg; in assay [4] (setting [6]) it was 6.25 mg/kg. Also, the “dose active in the unanesthetized cat test for muscle relaxants” value in the assay on unanesthetized cat is reported as 2.5 mg/kg. For the same compound, the “increase in blood pressure after 2 minutes” value in the assay with dogs (after 2 minutes) is reported as 10 mm. Hg. Further, the “increase in blood pressure, following gradual increase” value in the assay on dogs (gradual increase after the first 2 minutes) is listed as 25 mm. Hg. In addition, in the assay on animals, the “analgesic properties relative to phenylbutazone” value is given as “can be likened to the analgesic properties of phenylbutazone”.
Turning to `COC1(c2ccccc2)c2ccccc2C2=NCCN21` (centres unmarked) [Example 19, 2,3-dihydro-5-methoxy-5-phenyl-5H-imidazo[2,1-a]isoindole], the “psychostimulant test result relative to 2-(2-benzoylphenyl)-2-imidazoline” value in the assay with mice [1] is “qualitatively similar to 2-(2-benzoylphenyl)-2-imidazoline”.
Consider `OC1(c2ccccc2)c2ccccc2C2=NCCCCN21` (centres unmarked) [Example 21, 2,3,4,5-tetrahydro-7-hydroxy-7-phenyl-7H-diazepino-[2,1-a]isoindole], for which the minimal effective dose in assay [4] (setting [6]) amounted to 7.5 mg/kg; in assay [5] it was 25 mg/kg.
In the case of `CC(N)Cc1ccccc1` (centres unmarked) [amphetamine, reference compound], the minimal effective dose in assay [4] (setting [7]) turned out to be 1 mg/kg.
Take `CN(C)CCCN1c2ccccc2CCc2ccccc21` [imipramine, reference compound]: the minimal effective dose in assay [4] (setting [7]) was 10 mg/kg.
